Reference: patent US11918822B2, “Compositions and methods for enhancing the biological response to chemical agents and physical stimuli” (The Research Foundation for the State University of New York, priority 2010, dated 2024)

Test system: C3H10T1/2 embryonic mesenchymal stem cells
Assay: Adipogenesis of mesenchymal stem cells in adipogenic medium (adiponectin, PPARγ immunoblots, lipid granules)
Type: cell-based
Procedure: C3H10T1/2 embryonic mesenchymal stem cells were maintained in growth medium (α-MEM, 10% FBS, 100 µg/ml penicillin/streptomycin). Cells were plated at a density of 6,000-10,000 cells per cm^2 in collagen-I coated silicone membrane plates and cultured for two days before loading protocols began. Adipogenic medium included 0.1 μM dexamethasone, 5 μg/ml insulin, and in some cases, 50 μM indomethcin. If noted, MSC wee transfected with siRNA (100 nm) in serum-free OptiMEM overnight before replacing the medium. Multi-potential medium contained 50 μg/ml ascorbic acid, 1 μM β-glycerophosphate, 10 nM dexamethasone, nM all trans-retinoic acid, 5 μg/mi insulin, 0.5 mM 3-isobutyl-1-methylxanthine (IBMX).
Low Intensity Vibration (LIV): To deliver LIV to cultured MSC, an amplified loudspeaker generated controlled 90 Hz 0.6 g (where 1.0 g is Earth's gravitational field, or […]) standing wave accelerations/decelerations through the wells of culture dishes. Dishes were removed from the incubator during the loading periods (up to three times per day) and set on the lab-bench (control) or, for LIV, on the loudspeaker.
Western blotting: Details were as in Sen, et al. (Endocrinology 42:6065-6075 (2008)). Antibodies included those directed against active β-catenin (Upstate, Temecula, CA), total […] (BD, Bedford, MA), total-GSK3β Chemicon, Billerica, MA), aP2, PPARγ, adiponectin, COX2, NFATc1 and tubulin (Santa Cruz, CA). Densitometry was determined using NIH ImageJ, 1.37v.
Histochemical Staining: After fixation in 2% formaldehyde, cells were rinsed before staining for cytoplasmic triglyceride droplets with oil-red-O.

**Q.** O=C1NC(=O)C(c2ccccc2[N+](=O)[O-])=C1Nc1ccc(O)c(Cl)c1 [SB415286] was tested. Which effect on adipogenesis (MSC in adipogenic medium) did it give?
**A.** prevention of adipogenesis

**Q.** What about the “effect on adipogenesis when β-catenin is knocked down” value (MSC with siRNA targeting β-catenin (+siCat)) of the same molecule?
**A.** blocked by targeting β-catenin

**Q.** How did the “time to adipogenesis (rate of adipogenesis) after addition to adipogenic media” value (added to adipogenic media, without it 7-8 days) turn out when COc1ccc2c(c1)c(CC(=O)O)c(C)n2C(=O)c1ccc(Cl)cc1 [indonethacin] was run?
**A.** 4 to 5 days

B1: DKK1: protein from R & D Systems added at doses known to inhibit Wnt binding Lrp receptors (protein, UniProt O94907 32-266, looked up)
Dickkopf-related protein 1: TLNSVLNSNAIKNLPPPLGGAAGHPGSAVSAAPGILYPGGNKYQTIDNYQPYPCAEDEECGTDEYCASPTRGGDAGVQICLACRKRRKRCMRHAMCCPGNYCKNGICVSSDQNHFRGEIEETITESFGNDHSTLDGYSRRTTLSSKMYHTKGQEGSVCLRSSDCASGLCCARHFWSKICKPVLKEGQVCTKHRRKGSHGLEIFQRCYCGEGLSCRIQKDHHQASNSSRLHTCQRH
**Q.** With B1 as the molecule, how does the “effect on LIV's ability to inhibit adipogenesis” value (added to LIV treated cultures at doses known to inhibit Wnt binding Lrp receptors) read?
**A.** failed to block LIV's ability to inhibit adipogenesis
